In patent US9771370B2, “Compounds for the inhibition of indoleamine-2,3-dioxygenase” (Merck Patent GmbH, priority 2014, dated 2017):
Where “and” joins values, the source holds several entries; their conditions need not be identical. Equal values may be shown once.

Biological target: Recombinant human IDO (Homo sapiens, UniProt P14902)
Test: Bridge-IT tryptophan fluorescence assay of human IDO-1 inhibition
Assay type: biochemical
Conditions: recombinant human IDO 7.5 nM, L-tryptophan
How it was run: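 Two protocol variants: 100 μM L-Trp for 90 min at 37 °C, or 30 min enzyme–compound pre-incubation at 25 °C, then 50 μM L-Trp for 60 min at 25 °C. Reaction stopped in Bridge-IT solution A for 30 min at 30 °C.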

Sequence of Recombinant human IDO (P14902 whole entry): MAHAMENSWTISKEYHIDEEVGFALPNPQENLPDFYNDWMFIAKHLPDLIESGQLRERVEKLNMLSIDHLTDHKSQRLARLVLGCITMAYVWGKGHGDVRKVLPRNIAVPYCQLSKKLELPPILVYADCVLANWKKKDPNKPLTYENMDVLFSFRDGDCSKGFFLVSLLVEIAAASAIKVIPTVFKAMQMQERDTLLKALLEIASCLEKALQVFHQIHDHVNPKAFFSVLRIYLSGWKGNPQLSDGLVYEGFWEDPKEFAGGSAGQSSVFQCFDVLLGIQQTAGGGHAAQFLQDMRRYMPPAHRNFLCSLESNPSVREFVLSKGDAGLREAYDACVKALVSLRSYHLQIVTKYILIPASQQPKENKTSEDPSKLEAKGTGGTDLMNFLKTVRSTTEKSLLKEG

Structure (SMILES)	IC50
O[C@H]1CC[C@](F)(CC[C@H]2c3ccccc3-c3cncn32)CC1 [Compound 14b, (1S,4s)-4-(2-((S)-5H-imidazo[5,1-a]isoindol-5-yl)ethyl)-4-fluorocyclohexan-1-ol]	< 100 nM
Fc1ccc2c(n1)C(CCC1(F)CCCCC1)n1cncc1-2 (stereo not shown) [Compound 17, 10-fluoro-7-[2-(1-fluorocyclohexyl)ethyl]-4,6,9-triazatricyclo[6.4.0.0^[2,6]]dodeca-1(8),2,4,9,11-pentaene]	100 to 1000 nM
NC(CC1c2ncccc2-c2cncn21)C1CCCCC1 (stereo not shown) [Compound 21a, 1-cyclohexyl-2-[4,6,9-triazatricyclo[6.4.0.0^[2,6]]dodeca-1(8),2,4,9,11-pentaen-7-yl]ethan-1-amine]	> 1000 nM
OC(CC1c2nc(F)ccc2-c2cncn21)C1CCCCC1 (stereo not shown) [Compound 31a, 1-cyclohexyl-2-[10-fluoro-4,6,9-triazatricyclo[6.4.0.0^[2,6]]dodeca-1(8),2,4,9,11-pentaen-7-yl]ethan-1-ol]	100 to 1000 nM
COc1ccc2c(n1)C(CC(O)C1CCC(F)(F)CC1)n1cncc1-2 (stereo not shown) [Compound 33a, 1-(4,4-difluorocyclohexyl)-2-[10-methoxy-4,6,9-triazatricyclo[6.4.0.0^[2,6]]dodeca-1(8),2,4,9,11-pentaen-7-yl]ethan-1-ol]	100 to 1000 nM
COc1cccc2c1-c1cncn1C2CCC1(F)CCC(O)CC1 (stereo not shown) [Compound 41a, 4-fluoro-4-(2-(9-methoxy-5H-imidazo[5,1-a]isoindol-5-yl)ethyl)cyclohexanol]	> 1000 nM
Oc1cccc2c1-c1cncn1C2CCC1(F)CCC(O)CC1 (stereo not shown) [Compound 44a, 5-(2-(1-fluoro-4-hydroxycyclohexyl)ethyl)-5H-imidazo[5,1-a]isoindol-9-ol]	100 to 1000 nM
Fc1ccc2c(n1)C(CCC1(F)CCC(F)(F)CC1)n1cncc1-2 (stereo not shown) [Compound 46, 10-fluoro-7-[2-(1,4,4-trifluorocyclohexyl)ethyl]-4,6,9-triazatricyclo[6.4.0.0^[2,6]]dodeca-1(8),2,4,9,11-pentaene]	> 1000 nM
OC1CCC(CCC2c3ncccc3-c3cncn32)CC1 (stereo not shown) [Compound 47, 4-(2-[4,6,9-triazatricyclo[6.4.0.0^[2,6]]dodeca-1(8),2,4,9,11-pentaen-7-yl]ethyl)cyclohexan-1-ol]	> 1000 nM
FC1(F)CCC(CCC2c3ncccc3-c3cncn32)CC1 (stereo not shown) [Compound 49, 7-[2-(4,4-difluorocyclohexyl)ethyl]-4,6,9-triazatricyclo[6.4.0.0^[2,6]]dodeca-1(8),2,4,9,11-pentaene]	100 to 1000 nM
c1cnc2c(c1)-c1cncn1C2CCC1CCCCC1 (stereo not shown) [Compound 50, 7-(2-cyclohexylethyl)-4,6,9-triazatricyclo[6.4.0.0^[2,6]]dodeca-1(8),2,4,9,11-pentaene]	100 to 1000 nM
CC1(C)CCC(CCC2c3ncccc3-c3cncn32)CC1 (stereo not shown) [Compound 51, 7-[2-(4,4-dimethylcyclohexyl)ethyl]-4,6,9-triazatricyclo[6.4.0.0^[2,6]]dodeca-1(8),2,4,9,11-pentaene]	> 1000 nM
OC(CC1c2nc(Cl)ccc2-c2cncn21)C1CCC(F)(F)CC1 (stereo not shown) [Compound 52b, 2-[10-chloro-4,6,9-triazatricyclo[6.4.0.0^[2,6]]dodeca-1(8),2,4,9,11-pentaen-7-yl]-1-(4,4-difluorocyclohexyl)ethan-1-ol]	100 to 1000 nM
COc1ccc2c(n1)C(CC(O)C1CCC3(CC1)CC3)n1cncc1-2 (stereo not shown) [Compound 53a, 2-[10-methoxy-4,6,9-triazatricyclo[6.4.0.0^[2,6]]dodeca-1(8),2,4,9,11-pentaen-7-yl]-1-[spiro[2.5]octan-6-yl]ethan-1-ol]	100 to 1000 nM
OC(CC1c2nc(C3CC3)ccc2-c2cncn21)C1CCCCC1 (stereo not shown) [Compound 56a, 1-cyclohexyl-2-[10-cyclopropyl-4,6,9-triazatricyclo[6.4.0.0^[2,6]]dodeca-1(8),2,4,9,11-pentaen-7-yl]ethan-1-ol]	< 100 nM
OC(CC1c2nc(C3CC3)ccc2-c2cncn21)C1CCC(F)(F)CC1 (stereo not shown) [Compound 57a, 2-[10-cyclopropyl-4,6,9-triazatricyclo[6.4.0.0^[2,6]]dodeca-1(8),2,4,9,11-pentaen-7-yl]-1-(4,4-difluorocyclohexyl)ethan-1-ol]	> 1000 nM
NC(=O)C1CCC(C(O)CC2c3ncccc3-c3cncn32)CC1 (stereo not shown) [Compound 63a, 4-[1-hydroxy-2-[4,6,9-triazatricyclo[6.4.0.0^[2,6]]dodeca-1(8),2,4,9,11-pentaen-7-yl]ethyl]cyclohexane-1-carboxamide]	> 1000 nM
OC(CC1c2ncncc2-c2cncn21)C1CCCCC1 (stereo not shown) [Compound 67a, 1-cyclohexyl-2-[4,6,9,11-tetraazatricyclo[6.4.0.0^[2,6]]dodeca-1(8),2,4,9,11-pentaen-7-yl]ethan-1-ol]	> 1000 nM and 100 to 1000 nM
OCC1CCC(C(O)CC2c3ncccc3-c3cncn32)CC1 (stereo not shown) [Compound 73a, 1-[4-(hydroxymethyl)cyclohexyl]-2-[4,6,9-triazatricyclo[6.4.0.0^[2,6]]dodeca-1(8),2,4,9,11-pentaen-7-yl]ethan-1-ol]	> 1000 nM
OC1CCC(C(F)(F)CC2c3c(F)cccc3-c3cncn32)CC1 (stereo not shown) [Compound 75a, 4-(1,1-difluoro-2-[6-fluoro-5H-imidazo[4,3-a]isoindol-5-yl]ethyl)cyclohexan-1-ol]	< 100 nM
OC1(C2CCC(F)(CCC3c4c(F)cccc4-c4cncn43)CC2)CC1 (stereo not shown) [Compound 85b, 1-[4-fluoro-4-(2-[6-fluoro-5H-imidazo[4,3-a]isoindol-5-yl]ethyl)cyclohexyl]cyclopropan-1-ol]	100 to 1000 nM
CC(C)(O)C1CCC(F)(CCC2c3c(F)cccc3-c3cncn32)CC1 (stereo not shown) [Compound 86a, 2-[4-fluoro-4-(2-[6-fluoro-5H-imidazo[4,3-a]isoindol-5-yl]ethyl)cyclohexyl]propan-2-ol]	100 to 1000 nM
OC1CCC(F)(CCC2c3nccc(F)c3-c3cncn32)CC1 (stereo not shown) [Compound 103b, 4-fluoro-4-(2-[12-fluoro-4,6,9-triazatricyclo[6.4.0.0^[2,6]]dodeca-1(8),2,4,9,11-pentaen-7-yl]ethyl)cyclohexan-1-ol]	> 1000 nM
OC1(C2CCC(F)(CCC3c4c(Cl)cccc4-c4cncn43)CC2)CC1 (stereo not shown) [Compound 106b, 1-[4-(2-[6-chloro-5H-imidazo[4,3-a]isoindol-5-yl]ethyl)-4-fluorocyclohexyl]cyclopropan-1-ol]	100 to 1000 nM
CC(C)(O)C1CCC(F)(CCC2c3c(Cl)cccc3-c3cncn32)CC1 (stereo not shown) [Compound 107b, 2-[4-(2-[6-chloro-5H-imidazo[4,3-a]isoindol-5-yl]ethyl)-4-fluorocyclohexyl]propan-2-ol]	100 to 1000 nM
OC(CC1c2ncccc2-c2cncn21)C1(F)CCCCC1 (stereo not shown) [Compound 109b, 1-(1-fluorocyclohexyl)-2-[4,6,9-triazatricyclo[6.4.0.0^[2,6]]dodeca-1(8),2,4,9,11-pentaen-7-yl]ethan-1-ol]	100 to 1000 nM
O=C(C1CCC(F)(CCC2c3c(F)cccc3-c3cncn32)CC1)N1CCCCC1 (stereo not shown) [Compound 110a]	< 100 nM
CN(C)C(=O)C1CCC(F)(CCC2c3c(F)cccc3-c3cncn32)CC1 (stereo not shown) [Compound 111b, 4-fluoro-4-(2-[6-fluoro-5H-imidazo[4,3-a]isoindol-5-yl]ethyl)-N,N-dimethylcyclohexane-1-carboxamide]	100 to 1000 nM
